The target in one data set is FLT1 (VEGFR1) (Homo sapiens (Human), UniProt P17948). The data set can be described thus: Kinase inhibition, Mobility Shift Assay (VEGFR1). The data set is classed as biochemical. The protocol:
(§1) This assay directly monitored the ability of compounds to inhibit kinase phosphorylation by measuring non-phosphorylated and phosphorylated substrates in kinase reactions by using Mobility Shift Assays/IMAP™ analysis.
(§2) Add the kinase and DTT to 1× kinase buffer to form a 2.5× kinase solution; transfer 10 μL of 2.5× kinase solution to a 384-well reaction plate and add 1× kinase buffer to negative control wells. Incubate the plate for 10 min at room temperature; add FAM-labeled peptides, MgCl2, ATP and other reagents to 1× kinase buffer to form a 2.5× substrate solution; transfer 10 μL of the above 2.5× substrate solution to the 384-well reaction plate; incubate the plate at 28° C. for different times, and add 25 μL of stop solution to the 384-well reaction plate to stop the reaction. Read the conversion ratio data on CaliperEZ Reader II. Convert conversion rates into inhibition ratio data.
(§3) “Min” indicates the readout of the control well without the addition of kinase; and “Max” indicates the readout of the control well with the addition of DMSO. Fit IC50 values with XLFit excel add-in version 5.4.0.8.
(§4) X indicates the log value of compound concentration, and Y indicates the inhibition ratio (% inhibition).

For a further data set, the target named is EGFR (Homo sapiens (Human), UniProt P00533). In words: Kinase inhibition, Mobility Shift Assay (EGFR). Format: biochemical. The procedure, abridged:
(§5)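 Mobility shift assay: each kinase preincubated 10 min at room temperature with compound, then reacted with FAM-labeled peptide, MgCl2 and ATP at 28° C. for varying times. Substrate-to-product conversion read on Caliper; % inhibition normalised to no-kinase and DMSO controls, and IC50 fitted.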

The next data set addresses FLT4 (VEGFR3) (Homo sapiens (Human), UniProt P35916). In words: Kinase inhibition, Mobility Shift Assay (VEGFR3). Format: biochemical. As for the experimental part:
as §1, §2, §3, §4

The subject of the next data set is melanin. In words: Binding capacity of compounds to melanin. Format: in vitro ADME. The note with it: Sepia officinalis (cuttlefish), melanin suspension (1 mg/mL); 1 mg/mL melanin suspension in PBS pH 7.4, 2 μM compound, 2 h at 37° C.; read-out: Fu % (percentage of free drug, not bound to melanin). From the text:
Pigmented eye tissues contain melanin in intracellular melanosomes. Drugs bind to melanin to varying degrees, ranging from non-binding to extensive binding. Therefore, melanin binding is an important feature that affects drug delivery and biodistribution in the eye. The binding capacity of a compound to the melanin must be considered in the development of ophthalmic drugs.
Melanin was derived from the melanin of cuttlefish (Sepia officinalis) and was commercially available from Sigma Aldrich (St Louis, MO).
First, prepare 1 mg/mL melanin suspension with PBS (pH 7.4). As a washing step for the matrix, centrifuge the suspended particles for 5 min at 3000 rpm. Resuspend the resulting particles in a fresh PBS buffer, heat to 37° C. over continuous shaking and incubate it for 1 h. Accurately pipette 2 μL of the test stock solution (0.1 mM) into 98 μL of melanin suspension (1 mg/mL) to achieve a final incubation concentration of 2 μM. Similarly, accurately pipette 2 μL of the stock solution (0.1 mM) to 98 μL of PBS buffer (containing 0.1% BSA) as a blank control sample. Incubate the samples in a shaker (80-90 rpm) for 2 h at 37° C. Then, centrifuge the samples at room temperature. Pipette 50 μL of the supernatant and add 50 μL of precipitant (containing an internal standard). After protein precipitation of all the above samples, centrifuge the samples to collect the supernatants, dilute the supernatants with water (if necessary) and inject them for analysis. At the same time, measure the positive controls, including the high-binding compounds Sunitinib and chloroquine and the low-binding compound celecoxib. Establish an LC-MS/MS method for determining compound concentrations, and calibrate the peak area ratio of analyte/internal standard (Analyte/AIS) in the measured sample by the dilution factor to take it as an alternative concentration for the sample for data processing. The binding rate (Fh) of a compound in melanin was calculated as: […]
Ctest was the concentration of the compound in the melanin-incubated sample or the peak area ratio of the test compound to the internal standard. Ccontrol was the concentration of the compound in the blank control sample or the peak area ratio of the test compound to the internal standard. Percentage of free drug (Fu %)=100−Fb The binding rates of the compounds of the present invention to melanin are shown in the table below: […]

A further data set has as its target KDR (VEGFR2) (Homo sapiens (Human), UniProt P35968). The data set can be described thus: Kinase inhibition, Mobility Shift Assay (VEGFR2). The data set is classed as biochemical. The procedure, abridged:
as §5

KDR (VEGFR2), sequence (P35968 790-1356): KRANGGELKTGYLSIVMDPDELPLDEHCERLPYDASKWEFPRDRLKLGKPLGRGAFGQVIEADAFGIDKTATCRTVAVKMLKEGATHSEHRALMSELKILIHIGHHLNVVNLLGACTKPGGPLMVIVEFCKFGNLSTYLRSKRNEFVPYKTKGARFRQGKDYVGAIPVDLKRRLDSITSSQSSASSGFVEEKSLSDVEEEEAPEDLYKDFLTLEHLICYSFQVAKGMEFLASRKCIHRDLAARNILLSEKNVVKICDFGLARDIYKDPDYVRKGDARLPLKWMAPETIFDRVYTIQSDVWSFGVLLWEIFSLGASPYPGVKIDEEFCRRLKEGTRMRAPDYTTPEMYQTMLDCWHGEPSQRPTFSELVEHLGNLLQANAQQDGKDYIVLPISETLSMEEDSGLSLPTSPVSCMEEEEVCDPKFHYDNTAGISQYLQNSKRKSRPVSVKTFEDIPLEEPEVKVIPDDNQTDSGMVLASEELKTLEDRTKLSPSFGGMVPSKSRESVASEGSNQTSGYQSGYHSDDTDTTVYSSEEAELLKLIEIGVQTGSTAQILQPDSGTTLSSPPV
EGFR, sequence (P00533 25-1210): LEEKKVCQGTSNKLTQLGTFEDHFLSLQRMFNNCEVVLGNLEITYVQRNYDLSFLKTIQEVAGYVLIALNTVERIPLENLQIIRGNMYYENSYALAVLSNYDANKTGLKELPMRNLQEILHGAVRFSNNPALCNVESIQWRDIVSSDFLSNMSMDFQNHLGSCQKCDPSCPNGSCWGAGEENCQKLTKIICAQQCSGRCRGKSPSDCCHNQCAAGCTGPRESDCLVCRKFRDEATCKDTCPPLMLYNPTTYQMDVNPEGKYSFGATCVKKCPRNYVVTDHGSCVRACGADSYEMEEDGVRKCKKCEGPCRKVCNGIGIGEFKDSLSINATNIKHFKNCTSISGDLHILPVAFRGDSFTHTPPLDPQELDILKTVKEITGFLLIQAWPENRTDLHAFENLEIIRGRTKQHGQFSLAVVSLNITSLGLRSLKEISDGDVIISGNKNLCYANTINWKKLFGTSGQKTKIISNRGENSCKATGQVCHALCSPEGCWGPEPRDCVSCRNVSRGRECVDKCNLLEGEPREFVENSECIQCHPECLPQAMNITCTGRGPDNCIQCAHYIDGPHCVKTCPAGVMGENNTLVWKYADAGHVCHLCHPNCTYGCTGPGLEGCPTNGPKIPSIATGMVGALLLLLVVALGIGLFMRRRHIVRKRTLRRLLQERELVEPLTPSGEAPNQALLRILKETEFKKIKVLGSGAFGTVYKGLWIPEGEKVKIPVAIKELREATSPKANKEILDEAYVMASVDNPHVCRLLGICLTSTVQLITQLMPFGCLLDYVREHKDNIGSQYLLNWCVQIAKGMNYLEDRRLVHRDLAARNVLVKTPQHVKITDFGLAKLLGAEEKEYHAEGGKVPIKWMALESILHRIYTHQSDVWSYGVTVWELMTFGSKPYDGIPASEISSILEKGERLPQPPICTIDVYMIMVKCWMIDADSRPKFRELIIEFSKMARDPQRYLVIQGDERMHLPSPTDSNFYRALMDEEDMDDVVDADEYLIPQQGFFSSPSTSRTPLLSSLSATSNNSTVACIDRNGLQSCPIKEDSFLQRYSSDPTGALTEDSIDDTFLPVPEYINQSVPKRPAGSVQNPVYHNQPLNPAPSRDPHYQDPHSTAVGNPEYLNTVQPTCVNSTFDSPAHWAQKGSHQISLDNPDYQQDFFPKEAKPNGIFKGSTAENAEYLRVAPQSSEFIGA
FLT1 (VEGFR1), sequence (P17948 27-1338): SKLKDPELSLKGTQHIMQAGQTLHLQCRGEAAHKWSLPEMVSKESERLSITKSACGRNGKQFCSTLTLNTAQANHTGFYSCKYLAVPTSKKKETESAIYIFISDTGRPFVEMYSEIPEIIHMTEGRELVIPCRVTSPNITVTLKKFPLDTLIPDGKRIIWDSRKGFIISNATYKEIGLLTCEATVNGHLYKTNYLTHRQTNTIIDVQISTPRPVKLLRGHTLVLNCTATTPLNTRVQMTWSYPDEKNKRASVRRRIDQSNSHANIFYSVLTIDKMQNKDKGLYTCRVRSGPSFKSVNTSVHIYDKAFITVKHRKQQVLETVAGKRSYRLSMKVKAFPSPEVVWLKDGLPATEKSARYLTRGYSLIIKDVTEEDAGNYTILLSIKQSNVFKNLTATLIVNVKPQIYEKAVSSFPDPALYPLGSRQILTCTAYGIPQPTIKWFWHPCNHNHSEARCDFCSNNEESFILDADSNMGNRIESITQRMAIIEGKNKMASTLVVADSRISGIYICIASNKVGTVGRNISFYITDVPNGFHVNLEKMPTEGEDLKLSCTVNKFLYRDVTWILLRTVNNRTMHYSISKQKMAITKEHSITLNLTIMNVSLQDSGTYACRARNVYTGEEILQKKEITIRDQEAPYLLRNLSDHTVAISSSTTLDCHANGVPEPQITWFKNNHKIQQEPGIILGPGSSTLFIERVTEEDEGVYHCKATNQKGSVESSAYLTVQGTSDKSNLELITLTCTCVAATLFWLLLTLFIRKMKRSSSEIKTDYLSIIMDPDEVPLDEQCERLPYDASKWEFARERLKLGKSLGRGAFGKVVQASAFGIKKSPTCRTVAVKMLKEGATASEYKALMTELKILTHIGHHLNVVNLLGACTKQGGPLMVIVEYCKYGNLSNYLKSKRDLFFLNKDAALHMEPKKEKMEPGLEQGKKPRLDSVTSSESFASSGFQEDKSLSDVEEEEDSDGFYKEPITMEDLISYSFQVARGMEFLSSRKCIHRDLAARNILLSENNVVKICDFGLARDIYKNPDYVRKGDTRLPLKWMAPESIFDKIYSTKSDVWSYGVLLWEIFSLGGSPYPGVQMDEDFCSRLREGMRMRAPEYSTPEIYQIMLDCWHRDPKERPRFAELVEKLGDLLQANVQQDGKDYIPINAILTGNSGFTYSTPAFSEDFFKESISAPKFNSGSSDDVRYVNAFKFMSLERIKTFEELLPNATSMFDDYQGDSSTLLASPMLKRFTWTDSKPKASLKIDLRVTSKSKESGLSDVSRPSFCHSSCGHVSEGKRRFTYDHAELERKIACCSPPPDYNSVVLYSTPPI
FLT4 (VEGFR3), sequence (P35916 25-1363): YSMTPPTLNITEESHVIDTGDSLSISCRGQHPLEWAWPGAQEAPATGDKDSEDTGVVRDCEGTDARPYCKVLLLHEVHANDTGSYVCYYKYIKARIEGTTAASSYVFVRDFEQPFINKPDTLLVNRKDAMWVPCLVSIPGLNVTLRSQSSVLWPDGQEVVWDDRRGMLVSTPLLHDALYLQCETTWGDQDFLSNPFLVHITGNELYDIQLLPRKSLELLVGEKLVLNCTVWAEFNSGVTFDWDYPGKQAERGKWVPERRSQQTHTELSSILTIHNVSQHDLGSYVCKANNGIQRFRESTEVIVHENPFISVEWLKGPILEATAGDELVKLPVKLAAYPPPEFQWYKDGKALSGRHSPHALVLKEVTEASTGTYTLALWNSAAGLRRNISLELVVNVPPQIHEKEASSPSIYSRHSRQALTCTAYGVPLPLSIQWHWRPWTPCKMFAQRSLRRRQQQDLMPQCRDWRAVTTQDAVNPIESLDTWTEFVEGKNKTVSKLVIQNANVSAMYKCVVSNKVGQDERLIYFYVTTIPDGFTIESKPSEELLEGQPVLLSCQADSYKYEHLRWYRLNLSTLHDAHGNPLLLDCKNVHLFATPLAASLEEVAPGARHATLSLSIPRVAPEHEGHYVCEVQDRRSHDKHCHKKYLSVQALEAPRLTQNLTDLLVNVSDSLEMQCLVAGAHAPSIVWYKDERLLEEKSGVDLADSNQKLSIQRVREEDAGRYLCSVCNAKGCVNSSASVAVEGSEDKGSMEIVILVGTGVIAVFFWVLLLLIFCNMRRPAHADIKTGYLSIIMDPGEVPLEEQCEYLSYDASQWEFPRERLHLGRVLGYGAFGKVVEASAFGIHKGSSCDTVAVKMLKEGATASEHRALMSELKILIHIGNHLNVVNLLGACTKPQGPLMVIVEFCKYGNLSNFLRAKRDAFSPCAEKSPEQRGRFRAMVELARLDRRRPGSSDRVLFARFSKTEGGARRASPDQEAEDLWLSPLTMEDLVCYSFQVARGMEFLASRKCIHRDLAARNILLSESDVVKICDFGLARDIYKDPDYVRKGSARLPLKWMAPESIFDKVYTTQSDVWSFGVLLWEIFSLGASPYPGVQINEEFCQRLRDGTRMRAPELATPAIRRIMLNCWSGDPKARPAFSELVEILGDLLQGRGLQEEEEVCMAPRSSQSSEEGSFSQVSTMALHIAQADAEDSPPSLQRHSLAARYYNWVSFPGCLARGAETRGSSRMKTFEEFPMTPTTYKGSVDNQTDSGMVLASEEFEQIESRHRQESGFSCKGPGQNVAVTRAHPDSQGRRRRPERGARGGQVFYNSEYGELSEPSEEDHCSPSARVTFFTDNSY

Regarding `CNC(=O)c1cccc(F)c1Sc1ccc2c(/C=C/c3ccc(OCCN4CCCC4)cn3)n[nH]c2c1` [Compound I-33, 3-fluoro-N-methyl-2-({3-[(E)-2-{5-[2-(pyrrolidin-1-yl)ethoxy]pyridin-2-yl}vinyl]-1H-indazol-6-yl}thio)benzamide], the IC50 (as a rule, the point on the concentration scale where inhibition reaches its midpoint) lay in the range of 1 to 10 nM on FLT1 (VEGFR1), 6000 to 60000 nM at EGFR, 1 to 10 nM on FLT4 (VEGFR3) and 1 to 10 nM on KDR (VEGFR2). The fraction unbound at 2 h, 2 μM in the data set with melanin is more than 0.05.
Take `CNC(=O)c1ccccc1Sc1ccc2c(/C=C/c3cccc(OCCN4CCCC4)n3)n[nH]c2c1` [Compound I-17, N-methyl-2-({3-[(E)-2-{6-[2-(pyrrolidin-1-yl)ethoxy]pyridin-2-yl}vinyl]-1H-indazol-6-yl}thio)benzamide]: the IC50 at FLT1 (VEGFR1) was 1 to 10 nM; at EGFR it was 6000 to 60000 nM; on FLT4 (VEGFR3) it was 1 to 10 nM; on KDR (VEGFR2), 1 to 10 nM. In the data set with melanin, the fraction unbound at 2 h, 2 μM is 0.01 to 0.05.
`CNC(=O)c1ccccc1Sc1ccc2c(/C=C/c3ccc(OCCN4CCCC4)nc3)n[nH]c2c1` [Compound I-19, N-methyl-2-({3-[(E)-2-{6-[2-(pyrrolidin-1-yl)ethoxy]pyridin-3-yl}vinyl]-1H-indazol-6-yl}thio)benzamide]: the 50% inhibitory concentration (IC50) was 1 to 10 nM on FLT1 (VEGFR1), more than 60000 nM at EGFR, 1 to 10 nM at FLT4 (VEGFR3) and 1 to 10 nM on KDR (VEGFR2). The fraction unbound at 2 h, 2 μM in the data set with melanin lay within 0.01 to 0.05.
In the case of `CN1CCN(c2ccc(/C=C/c3n[nH]c4cc(Sc5ccccc5C(=O)NC5CC5)ccc34)nc2)CC1` [Compound I-38, N-cyclopropyl-2-({3-[(E)-2-[5-(4-methylpiperazin-1-yl)pyridin-2-yl]vinyl]-1H-indazol-6-yl}thio)benzamide], the half-inhibitory concentration (IC50) is not above 1 nM on FLT1 (VEGFR1), 600 to 6000 nM on EGFR, not above 1 nM at FLT4 (VEGFR3) and not above 1 nM at KDR (VEGFR2). Moreover, the fraction unbound at 2 h, 2 μM in the data set on melanin is 0.01 to 0.05.
As for `CNC(=O)c1ccccc1Sc1ccc2c(/C=C/c3ccc(OCCN4CCN(C)CC4)cn3)n[nH]c2c1` [Compound I-4, N-methyl-2-({3-[(E)-2-{5-[2-(4-methylpiperazin-1-yl)ethoxy]pyridin-2-yl}vinyl]-1H-indazol-6-yl}thio)benzamide], the IC50 on FLT1 (VEGFR1) is not above 1 nM; on EGFR it was 6000 to 60000 nM; at FLT4 (VEGFR3), not above 1 nM; on KDR (VEGFR2) it was not above 1 nM. Further, in the data set with melanin, the fraction unbound at 2 h, 2 μM is more than 0.05.
With `CNC(=O)c1ccccc1Sc1ccc2c(/C=C/c3ccnn3CCN3CCCC3)n[nH]c2c1` [Compound I-25, N-methyl-2-({3-[(E)-2-{1-[2-(pyrrolidin-1-yl)ethyl]-1H-pyrazole-5-yl}vinyl]-1H-indazol-6-yl}thio)benzamide], the IC50 on FLT1 (VEGFR1) is 10 to 100 nM; at EGFR, 6000 to 60000 nM; on FLT4 (VEGFR3), 10 to 100 nM; on KDR (VEGFR2) it was more than 100 nM. Moreover, the fraction unbound at 2 h, 2 μM in the data set on melanin was more than 0.05.
Consider `CNC(=O)c1ccccc1Sc1ccc2c(/C=C/c3ccn(CCCN4CCCC4)n3)n[nH]c2c1` [Compound I-11, N-methyl-2-({3-[(E)-2-{1-[3-(pyrrolidin-1-yl)propyl]-1H-pyrazole-3-yl}vinyl]-1H-indazol-6-yl}thio)benzamide], for which the concentration for half-maximal inhibition (IC50) on FLT1 (VEGFR1) is 1 to 10 nM; at EGFR, 6000 to 60000 nM; on FLT4 (VEGFR3), 1 to 10 nM; on KDR (VEGFR2), 1 to 10 nM. Further, in the data set on melanin, the fraction unbound at 2 h, 2 μM was 0.01 to 0.05.
As for `CNC(=O)c1ccccc1Sc1cnc2c(/C=C/c3ccccn3)n[nH]c2c1` [Compound I-21, N-methyl-2-({3-[(E)-2-(pyridin-2-yl)vinyl]-1H-pyrazolo[4,3-b]pyridin-6-yl}thio)benzamide], the IC50 lay in the range of 10 to 100 nM on FLT1 (VEGFR1), 6000 to 60000 nM on EGFR, 10 to 100 nM at FLT4 (VEGFR3) and 10 to 100 nM on KDR (VEGFR2). For the same compound, the fraction unbound at 2 h, 2 μM with melanin was in the range of 0.01 to 0.05.
Take `CNC(=O)c1ccccc1Sc1ccc2c(C#Cc3cc(OCCN4CCCC4)ccn3)n[nH]c2c1` [Compound I-23, N-methyl-2-{[3-(2-{4-[2-(pyrrolidin-1-yl)ethoxy]pyridin-2-yl}ethynyl)-1H-indazol-6-yl]thio}benzamide]: the IC50 on FLT1 (VEGFR1) was 10 to 100 nM; at EGFR it was 6000 to 60000 nM; on FLT4 (VEGFR3), more than 100 nM; at KDR (VEGFR2), 10 to 100 nM. Moreover, the fraction unbound at 2 h, 2 μM with melanin fell in the range of 0.01 to 0.05.
For `CNC(=O)c1ccccc1Sc1ccc2c(/C=C/c3ccc(OC[C@@H]4CCN(C)C4)cn3)n[nH]c2c1` [Compound I-39, N-methyl-2-({3-[(E)-2-(5-{[(3R)-1-methylpyrrolidin-3-yl]methoxy}pyridin-2-yl)vinyl]-1H-indazol-6-yl}thio)benzamide], the IC50 on FLT1 (VEGFR1) is not above 1 nM; at EGFR, 6000 to 60000 nM; at FLT4 (VEGFR3) it was 1 to 10 nM; on KDR (VEGFR2) it was not above 1 nM. Also, in the data set on melanin, the fraction unbound at 2 h, 2 μM is 0.01 to 0.05.
In the case of `O=C(NC1CC1)c1cc(F)ccc1Sc1ccc2c(/C=C/c3cc(OCCN4CCCC4)ccn3)n[nH]c2c1` [Compound I-118, N-cyclopropyl-5-fluoro-2-({3-[(E)-2-{4-[2-(pyrrolidin-1-yl)ethoxy]pyridin-2-yl}vinyl]-1H-indazol-6-yl}thio)benzamide], the concentration for half-maximal inhibition (IC50) at FLT1 (VEGFR1) is 10 to 100 nM; at EGFR, more than 60000 nM; at FLT4 (VEGFR3) it was 10 to 100 nM; at KDR (VEGFR2), 1 to 10 nM. In the data set with melanin, the fraction unbound at 2 h, 2 μM is less than 0.01.
With `CNC(=O)c1ccccc1Sc1ccc2c(/C=C/c3ccn(CCN4CCCC4)n3)n[nH]c2c1` [Compound I-13, N-methyl-2-({3-[(E)-2-{1-[2-(pyrrolidin-1-yl)ethyl]-1H-pyrazole-3-yl}vinyl]-1H-indazol-6-yl}thio)benzamide], the concentration for half-maximal inhibition (IC50) was 1 to 10 nM on FLT1 (VEGFR1), 6000 to 60000 nM on EGFR, not above 1 nM on FLT4 (VEGFR3) and 1 to 10 nM on KDR (VEGFR2). Further, the fraction unbound at 2 h, 2 μM with melanin was in the range of 0.01 to 0.05.
For `CCNC(=O)c1cccc(F)c1Sc1ccc2c(/C=C/c3cc(CCCN4CCCC4)ccn3)n[nH]c2c1` [Compound I-116, N-ethyl-3-fluoro-2-({3-[(E)-2-{4-[3-(pyrrolidin-1-yl)propyl]pyridin-2-yl}vinyl]-1H-indazol-6-yl}thio)benzamide], the IC50 on FLT1 (VEGFR1) is 10 to 100 nM; at EGFR it was more than 60000 nM; at FLT4 (VEGFR3) it was 10 to 100 nM; at KDR (VEGFR2), 10 to 100 nM. Also, the fraction unbound at 2 h, 2 μM in the data set with melanin was 0.01 to 0.05.

The values are drawn from patent US20260049071A1, “PROTEIN TYROSINE KINASE INHIBITOR AND MEDICAL USE THEREOF” (BEYANG THERAPEUTICS CO., LTD., priority 2022, published 2026).
